According to patent US6573253B2, “Methods for the administration of amifostine and related compounds” (MedImmune Oncology Inc., priority 1997, dated 2003):
Where “and” joins values, the source holds several entries; their conditions need not be identical. Identical values can stand only once. Like-named read-outs stand apart in the source and are kept apart here. One block for each molecule: values may come before it.

How the values were obtained:
[1] = human, in vivo
Description: All subjects were sequestered at the study site from the evening before the administration of the first dose of study drug until the final whole blood sample was obtained.
Blood samples (5 to 7 mL each) were collected either by venipuncture or indwelling venous catheter (IVC) heparin lock. If IVC was used, it was inserted in the arm opposite the infusion site. […] For either line, the first 3 to 5 cc of blood were discarded (void volume) prior to blood collection.
To prevent further oxidation of WR-1065, PCA/EDTA was added to the samples prior to centrifugation. Because PCA/EDTA ruptures the cellular content of the blood, the samples were centrifuged for a longer period of time to prevent contamination/metabolism of the active metabolite. Consequently, only the clear supernatant (serum) was used for analysis of WR-1065. In contrast, no PCA/EDTA was added to the blood samples designated for analysis of the parent drug; therefore, plasma samples were prepared for analysis of the parent drug.
WINNONLIN, the WINDOWS version of PCNONLIN, was used for the determination of pharmacokinetic parameters for each subject following each route of administration. Non-compartmental modelling of the data was performed.
AUCs were calculated using extrapolation according to a straightline from the last non-zero point.
The AUCs were then analyzed using an analysis of variance (ANOVA) model with route, period and subject as variables. Sequence was not included in the model as this variable was uniquely determined by route and period. The confidence interval on the ratio of the subcutaneous or oral route to the intravenous route was calculated using the mean square error from the entire ANOVA model.

[2] = test system: Bone marrow progenitor cells; assay: In vitro colony formation (CFU-GEMM, BFU-E, CFU-GM) of bone marrow progenitor cells from treated MDS patients, methylcellulose assays; assay type: cell-based, human; conditions: bone marrow progenitor cells from MDS patients after s.c. amifostine
Description: (§1) Blood pressure was monitored before treatment and after the first dose at 30 minute intervals for up to 90 minutes. […] At least three patients were treated with each dose. […] Hematologic responses to treatment were evaluated by measuring neutrophil count (ANC), platelet count, erythroid response including hemoglobin levels and reticulocyte count, and in vitro colony formation.
Bone marrow progenitor cells were recovered from the treated patients and assayed for their ability to form CFU-GEMM, BFU-E and CFU-GM colonies in standard methylcellulose assays.

[3] = test system: MDS; assay: Subcutaneous amifostine in MDS patients: hematologic responses and adverse effects; assay type: in vivo, human
Source text: All patients in the study had MDS and were diagnosed as having one of the following subtypes: refractory anemia, refractory anemia with ring sideroblasts, refractory anemia with excess blasts or refractory anemia with excess blasts in transformation. In addition, the patients had thrombocytopenia (platelets <100,000/μl), neutropenia (ANC or absolute neutrophil count<1500/μl) or a hemoglobin untransfused <10 g/dl and/or were transfusion-dependent as defined by requiring at least 4 units of RBC in the 10 weeks prior to entry.
as §1

[4] = Phase I three-way crossover study: safety assessments / adverse events (NCI Common Toxicity Criteria)
Description: If hypotension occurred, the subject was to receive a rapid infusion of 500 mL normal saline and was to be kept supine or in the Trendelenburg position until blood pressure returned to baseline. During this time, blood pressure was monitored every 3 minutes.
All subjects who had received at least one dose of protocol therapy were considered evaluable for safety. […] Toxicity was based on National Cancer Institute (NCI) Common Toxicity Criteria.
Because this was a crossover study to be performed on three successive days, toxicities were assigned to the route of administration on the day the toxicity occurred. A full nonparametric crossover model (likelihood of ratio test) was used to assess toxicities which corrected for period and sequence effects. A PROC CATMOD of SAS@ was used for this analysis.

[5] = test system: radiation-induced mucositis; assay: Radiation-induced mucositis model, inferior lip of mice (Parkins et al.): body weight, mucosal erythema and edema scores; conditions: for Erythema (score) / Oedema (score): individual mice and Mean
[6] = test system: radiation-induced xerostomia; conditions: IV Amifostine + RT, cited from earlier work
[7] = test system: mucositis; assay: Rat RT model: mucosal radioprotection by IV or SC amifostine at various times before 15.3 Gy head and neck irradiation (mucositis score); assay type: in vivo; conditions: rats, 200 mg/kg (1200 mg/m^2), given up to 4 hours prior to radiation therapy (15.3 Gy)
Description: A rat RT model was used to examine the protective effects of amifostine following IV as well as subcutaneous (SC) administration, and to investigate the length of time between amifostine administration and RT. In these experiments, rats were given 200 mg/kg (1200 mg/m^2) of amifostine IV or SC, and their head and neck regions exposed to 15.3 Gy of gamma irradiation at various times following amifostine administration. For 10 days after treatment, the rats were weighed and the oral cavities of the rats were examined for signs of mucositis. Mucosal erythema and mucosal edema were scored according to 0-5 and 0-2 scales, respectively, with the scores added to indicate overall mucositis.

[8] = test system: radiation-induced xerostomia
Description: In the phase II study all patients were undergoing radiation therapy for histologically confirmed squamous cell carcinoma of the head and neck region. Patients were allowed to enter the study following surgery with curative intent as soon as the wound has healed but no later than 12 weeks post operatively.
Blood pressure and pulse were obtained prior to subcutaneous administration and repeated 10 minutes following administration. An IV was available to treat hypotension if it occurred. Patients received full supportive care including antiemetics, antibiotics, transfusions of blood and blood products, and the like when needed. Prophylactic antiemetics were not administered. If patients experienced nausea and vomiting they were administered either prochlorperazine, 10 mg PO, 30 minutes prior to therapy, repeating every 4 to 6 hours following therapy as needed or ondansetron, 8 mg PO, 30 minutes prior to therapy, repeating every 4 hours following therapy as needed.
Radiation therapy was provided with linear accelerators with appropriate photon and electron boosting to the nodes or Cobalt 60. The appropriate photon energy was based on optimizing the radiation therapy dose distribution within the target volume and minimizing dose to normal tissue. Patients were reproducibly mobilized and radio-opaque markers were used to delineate the extent of nodal disease and, where possible, the primary tumor. All fields were treated once daily at 1.8-2.0 Gy per fraction, five days per week to a total dose of:
Xerostomia was graded in each subject according to the RTOG criteria.

[9] = cited from earlier work
[10] = MDS patients, s.c. 500 mg once/day, 17 evaluable
[11] = Intravenous 200 mg/m^2, N = 12, table cells give subject numbers
[12] = Intravenous 200 mg/m^2, N = 12, table cells give subject numbers, listed as amifostine
[13] = Oral 500 mg, N = 12, table cells give subject numbers
[14] = Amifostine (l.p.) at 200 mg/kg + Irradiation (16.5 Gy), day 6 after treatment, 200 mg/kg
[15] = Amifostine (l.p.) at 200 mg/kg + Irradiation (16.5 Gy), day 7 after treatment, 200 mg/kg
[16] = Amifostine (l.p.) at 200 mg/kg + Irradiation (16.5 Gy), day 13 after treatment, 200 mg/kg
[17] = Amifostine (l.p.) at 200 mg/kg + Irradiation (16.5 Gy), day 14 after treatment, 200 mg/kg
[18] = Amifostine (l.p.) at 400 mg/kg + Irradiation (16.5 Gy), day 13 after treatment, 400 mg/kg
[19] = Amifostine (l.p.) at 400 mg/kg + Irradiation (16.5 Gy), day 14 after treatment, 400 mg/kg
[20] = Amifostine (s.c.) at 200 mg/kg + Irradiation (16.5 Gy), day 9 after treatment, 200 mg/kg
[21] = Amifostine (s.c.) at 400 mg/kg + Irradiation (16.5 Gy), day 14 after treatment, 400 mg/kg
[22] = SC amifostine, head and neck cancer patients
[23] = intravenous, cancer patients, plasma

time after administration at which concentration dropped below 10 μM, amifostine (parent drug plus active metabolite) ([1]; iv): 45 min
time after administration at which concentration dropped below 10 μM, amifostine (parent drug) ([1]; iv): approximately 30 minutes
time after administration at which concentration dropped below 1.0 μM, amifostine (parent drug plus active metabolite) ([1]; po): 10 to 13 min
time after administration at which concentration fell below 10 μM, amifostine (parent drug plus active metabolite) ([1]; sc): approximately 50 minutes
time after administration at which concentration fell below 10 μM, amifostine (parent drug) ([1]; sc): approximately 45 minutes
peak levels (maximum whole blood concentration) ([1]; male, iv): about 100 μM
AUC of Combined (parent drug and active metabolite), 500 mg Oral (PO) ([1]; male, po): 0 µM·min
maximum blood levels ([1]; male, sc): about 12 μM
time to maximum and sustained whole blood concentration ([1]; male, sc): 15 to 45 min
Grade 3 hypotension [8, 22]: no reports
Grade 3 nausea/vomiting [8, 22]: no reports
SMILES: NCCCNCCSP(=O)(O)O [Amifostine, S-2-(3-aminopropylamino)ethyl dihydrogen phosphorothioate]
formation of CFU-GEMM, BFU-E and CFU-GM colonies [2]: produced bone marrow colonies
Platelet response, patients with >50,000/μl: Responders (number) ([3]; 3 evaluable): 3
Platelet response, patients with >50,000/μl: Responders (percent) ([3]; 3 evaluable): 100%
BM Blasts ↑ (RAEB): patients (number; RAEB-t, AML) ([3]; 5 evaluable): 2 (RAEB-t, AML)
Platelet response, patients with <50,000/μl: Responders (number) ([3]; 6 evaluable): 0
Hemoglobin >1.5 g/dl ↑: Responders (number) ([3]; 7 evaluable): 1
Ring Sideroblast ↓: Responders (number) ([3]; 7 evaluable): 3
ANC response, patients with ANC < 1000: Responders (number) ([3]; 8 evaluable): 3
ANC response, patients with ANC < 1000: Responders (percent) ([3]; 8 evaluable): 38.5%
ANC response, patients with ANC > 1000: Responders (number) ([3]; 9 evaluable): 2
ANC response, patients with ANC > 1000: Responders (percent) ([3]; 9 evaluable): 22%
Platelets ≧ 50% ↑: Responders (number) ([3]; 9 evaluable): 3
Platelets ≧ 50% ↑: Responders (percent) ([3]; 9 evaluable): 33%
RBC Transfusion (≦50% ↓): Responders (number) ([3]; 13 evaluable): 0
Retic count ≧ 50% ↑: Responders (number) ([3]; 14 evaluable): 10
Retic count ≧ 50% ↑: Responders (percent) ([3]; 14 evaluable): 71%
ANC ≧ 50% ↑: Responders (number) [3, 10]: 5
ANC ≧ 50% ↑: Responders (percent) [3, 10]: 29%
fatigue (grade I/II): patients ([3]; MDS patients, s.c. amifostine): four patients
local reaction (grade III): patients ([3]; MDS patients, s.c. amifostine): one patient
metallic taste (grade I/II): patients ([3]; MDS patients, s.c. amifostine): one patient
nausea (grade I/II): patients ([3]; MDS patients, s.c. amifostine): one patient
rash (grade I/II): patients ([3]; MDS patients, s.c. amifostine): six patients
vomiting (grade I/II): patients ([3]; MDS patients, s.c. amifostine): one patient
Headache: subjects who reported the adverse event [4, 11]: 1008
Hypotension: subjects who reported the adverse event [4, 11]: 1003
Lightheadedness: subjects who reported the adverse event [4, 11]: 1003
Somnolence: subjects who reported the adverse event [4, 11]: 1008
Vomiting: subjects who reported the adverse event [4, 11]: 1008
Hypotension: subjects who reported the adverse event [4, 12]: one subject
Nausea: subjects who reported the adverse event [4, 12]: five subjects
Vomiting: subjects who reported the adverse event [4, 12]: one subject
Hypotension: subjects who reported the adverse event [4, 13]: 1003
Lightheadedness: subjects who reported the adverse event [4, 13]: 1003
Hypotension: subjects who reported the adverse event ([4]; Oral 500 mg, N = 12, table cells give subject numbers, listed as amifostine): one subject
incidence of hypotension ([4]; Subcutaneous 500 mg, N = 12): no incidence
Nausea: subjects who reported the adverse event ([4]; Subcutaneous 500 mg, N = 12, table cells give subject numbers): 1002
Nausea: subjects who reported the adverse event ([4]; Subcutaneous 500 mg, N = 12, table cells give subject numbers, listed as amifostine): one subject
Grade 2 or higher laboratory toxicity (NCI Common Toxicity Criteria) ([4]; after last dose, 12 subjects): none of the subjects
serum creatinine value, Subject 1010 ([4]; after last dose, baseline 0.90 mg/dL, reference range 0.70 to 1.40 mg/dL): 0.60 mg/dL
changes in physical examination, weight and vital signs ([4]; after the last dose of amifostine): No remarkable changes
severity of adverse events ([4]; all three routes): mild in severity, transient
discontinuation due to adverse events ([4]; all three routes, 12 subjects): No subject discontinued
subjects who reported adverse events ([4]; intravenous amifostine, 12 subjects): Five subjects
subjects who reported adverse events ([4]; oral amifostine, 12 subjects): one subject
tolerability ([4]; regardless of route of administration): well tolerated
subjects who reported adverse events ([4]; subcutaneous amifostine, 12 subjects): one subject
Erythema (score) [5, 14]: 0.5 and 0
Oedema (score) [5, 14]: 1 and 0 and 0.5
Erythema (score) [5, 15]: 0.5 and 0
Oedema (score) [5, 15]: 1 and 0 and 0.5
Oedema (score) ([5]; Amifostine (l.p.) at 200 mg/kg + Irradiation (16.5 Gy), day 12 after treatment, 200 mg/kg): 2 and 1 and 0.5
Erythema (score) [5, 16]: 0.5 and 2 and 1
Oedema (score) [5, 16]: 0.5 and 2 and 1
Erythema (score) [5, 17]: 0.5 and 2 and 1 and 0
Oedema (score) [5, 17]: 0.5 and 2 and 1 and 0
Oedema (score) ([5]; Amifostine (l.p.) at 400 mg/kg + Irradiation (16.5 Gy), day 6 after treatment, 400 mg/kg): 0.5 and 0
Oedema (score) ([5]; Amifostine (l.p.) at 400 mg/kg + Irradiation (16.5 Gy), day 7 after treatment, 400 mg/kg): 0.5 and 0
Erythema (score) ([5]; Amifostine (l.p.) at 400 mg/kg + Irradiation (16.5 Gy), day 12 after treatment, 400 mg/kg): 3 and 1 and 2
Erythema (score) [5, 18]: 0 and 0.5
Oedema (score) [5, 18]: 0.5 and 0
Erythema (score) [5, 19]: 0 and 0.5
Oedema (score) [5, 19]: 0.5 and 0
Erythema (score) ([5]; Amifostine (s.c.) at 200 mg/kg + Irradiation (16.5 Gy), day 7 after treatment, 200 mg/kg): 0 and 0.5
Erythema (score) [5, 20]: 0.5 and 1 and 3
Oedema (score) [5, 20]: 0.5 and 1 and 2
Erythema (score) ([5]; Amifostine (s.c.) at 200 mg/kg + Irradiation (16.5 Gy), day 13 after treatment, 200 mg/kg): 1 and 0.5 and 2
Oedema (score) ([5]; Amifostine (s.c.) at 200 mg/kg + Irradiation (16.5 Gy), day 14 after treatment, 200 mg/kg): 0.5 and 1 and 0
Oedema (score) ([5]; Amifostine (s.c.) at 400 mg/kg + Irradiation (16.5 Gy), day 6 after treatment, 400 mg/kg): 1 and 0.5 and 0
Oedema (score) ([5]; Amifostine (s.c.) at 400 mg/kg + Irradiation (16.5 Gy), day 7 after treatment, 400 mg/kg): 0.5 and 0
Erythema (score) ([5]; Amifostine (s.c.) at 400 mg/kg + Irradiation (16.5 Gy), day 13 after treatment, 400 mg/kg): 1 and 0 and 0.5
Erythema (score) [5, 21]: 1 and 0 and 0.5
Oedema (score) [5, 21]: 1 and 0 and 0.5
mucosal edema scores as compared to saline plus irradiation ([5]; both injection methods (i.p., s.c.)): decreased
average erythema score as compared to saline plus irradiation ([5]; i.p and s.c. administration): decreased
reduction in body weight after irradiation ([5]; i.p. or s.c. injection of amifostine, irradiated mice): prevented
effect of increasing the dose from 200 mg/kg to 400 mg/kg ([5]; irradiated mice): minimal additional benefits
efficacy at the time points of maximal adverse effects (day 9 body weight, day 12 erythema and edema) ([5]; subcutaneous, 200 mg/kg): highest efficacy
≧Grade 2 acute xerostomia Incidence, All patients ([6]; 200 mg/m^2 3 minute infusion 15 to 30 minutes before RT, N 148): 51%
≧Grade 2 acute xerostomia Incidence, Patients receiving ≧60 Gy RT ([6]; 200 mg/m^2): 51%
≧Grade 2 acute xerostomia, Median cumulative RT dose to onset ([6]; 200 mg/m^2): 60 Gy
≧Grade 2 acute xerostomia, Median time to onset ([6]; 200 mg/m^2): 45 days
radioprotection (mucositis) of SC versus IV administration [7]: comparable to IV administration
rate of acute xerostomia with subcutaneous versus IV amifostine ([8]; SC amifostine + RT): comparable rate
amifostine remaining in the plasma ([9]; 6 minutes after intravenous administration): Less than 10%
distribution half-life [9, 23]: less than 1 minute
elimination half-life [9, 23]: approximately 9 minutes

absolute bioavailability of the active metabolite [1]: 0.53
time after administration at which concentration fell below 5 μM, WR-1065 ([1]; iv): approximately 45 minutes
time after administration at which concentration fell below 5 μM, WR-1065 ([1]; sc): approximately 60 minutes
peak levels (maximum whole blood concentration) ([1]; male, iv): about 23 μM
maximum blood levels ([1]; male, sc): ~4 µM
time to maximum and sustained whole blood concentration ([1]; male, sc): 15 to 45 min
SMILES: NCCCNCCS [WR-1065, 2-[3-aminopropylamino]ethanethiol]
